Experimental data as given in publication PMC9133015 (Nature Communications, 2022).
“And” between values parts separate entries of the source, which are not always exact repeats. Equal entries are not always repeated.

Experiments:
Assay in all cases: Kinase inhibitor specificity profiling (Reaction Biology Corporation)
Type in all cases: biochemical
Parameters in all cases: % Enzyme Activity (relative to DMSO controls): concentration or dose not given beside the values
[1] = target: T1, panel of 370 protein kinases (Homo sapiens, UniProt O00444); settings: 2 h, kinase PLK4/SAK; read-out: % Enzyme Activity (relative to DMSO controls)
T1 construct: purchased Reaction Biology Corporation (assay service)

[2] = target: T2, panel of 370 protein kinases (Homo sapiens, UniProt O14578); settings: kinase STK21/CIT
T2 construct: purchased Reaction Biology Corporation (assay service)

[3] = target: T3, panel of 370 protein kinases (Homo sapiens, UniProt O43353); settings: 2 h, kinase RIPK2; read-out: % Enzyme Activity (relative to DMSO controls)
T3 construct: purchased Reaction Biology Corporation (assay service)

[4] = target: T4, panel of 370 protein kinases (Homo sapiens, UniProt O60674); settings: kinase JAK2
T4 construct: purchased Reaction Biology Corporation (assay service)

[5] = target: T5, panel of 370 protein kinases (Homo sapiens, UniProt O95819); settings: 2 h, kinase HGK/MAP4K4; read-out: % Enzyme Activity (relative to DMSO controls)
T5 construct: purchased Reaction Biology Corporation (assay service)

[6] = target: T6, panel of 370 protein kinases (Homo sapiens, UniProt P11362); settings: 2 h, kinase FGFR1; read-out: % Enzyme Activity (relative to DMSO controls)
T6 construct: purchased Reaction Biology Corporation (assay service)

[7] = target: T7, panel of 370 protein kinases (Homo sapiens, UniProt P16234); settings: 2 h, kinase PDGFRa; read-out: % Enzyme Activity (relative to DMSO controls)
T7 construct: purchased Reaction Biology Corporation (assay service)

[8] = target: T8, panel of 370 protein kinases (Homo sapiens, UniProt P29323); settings: kinase EPHB2
T8 construct: purchased Reaction Biology Corporation (assay service)

[9] = target: T9, panel of 370 protein kinases (Homo sapiens, UniProt P37173); settings: 2 h, kinase TGFBR2; read-out: % Enzyme Activity (relative to DMSO controls)
T9 construct: purchased Reaction Biology Corporation (assay service)

[10] = target: T10, panel of 370 protein kinases (Homo sapiens, UniProt P50613); settings: 2 h, kinase CDK7/cyclin H; read-out: % Enzyme Activity (relative to DMSO controls)
T10 construct: purchased Reaction Biology Corporation (assay service)

[11] = target: T11, panel of 370 protein kinases (Homo sapiens, UniProt P54764); settings: 2 h, kinase EPHA4; read-out: % Enzyme Activity (relative to DMSO controls)
T11 construct: purchased Reaction Biology Corporation (assay service)

[12] = target: T12, panel of 370 protein kinases (Homo sapiens, UniProt Q04759); settings: 2 h, kinase PKCtheta; read-out: % Enzyme Activity (relative to DMSO controls)
T12 construct: purchased Reaction Biology Corporation (assay service)

[13] = target: T13, panel of 370 protein kinases (Homo sapiens, UniProt Q13464); settings: 2 h, kinase ROCK1; read-out: % Enzyme Activity (relative to DMSO controls)
T13 construct: purchased Reaction Biology Corporation (assay service)

[14] = target: T14, panel of 370 protein kinases (Homo sapiens, UniProt Q13627); settings: 2 h, kinase DYRK1/DYRK1A; read-out: % Enzyme Activity (relative to DMSO controls)
T14 construct: purchased Reaction Biology Corporation (assay service)

[15] = target: T15, panel of 370 protein kinases (Homo sapiens, UniProt Q14289); settings: 2 h, kinase PYK2; read-out: % Enzyme Activity (relative to DMSO controls)
T15 construct: purchased Reaction Biology Corporation (assay service)

[16] = target: T16, panel of 370 protein kinases (Homo sapiens, UniProt Q15418); settings: 2 h, kinase RSK1; read-out: % Enzyme Activity (relative to DMSO controls)
T16 construct: purchased Reaction Biology Corporation (assay service)

[17] = target: T17, panel of 370 protein kinases (Homo sapiens, UniProt Q15831); settings: 2 h, kinase LKB1; read-out: % Enzyme Activity (relative to DMSO controls)
T17 construct: purchased Reaction Biology Corporation (assay service)

[18] = target: T18, panel of 370 protein kinases (Homo sapiens, UniProt Q5TCX8); settings: 2 h, kinase MLK4; read-out: % Enzyme Activity (relative to DMSO controls)
T18 construct: purchased Reaction Biology Corporation (assay service)

[19] = target: T19, panel of 370 protein kinases (Homo sapiens, UniProt Q8TD19); settings: 2 h, kinase NEK9; read-out: % Enzyme Activity (relative to DMSO controls)
T19 construct: purchased Reaction Biology Corporation (assay service)

[20] = target: T20, panel of 370 protein kinases (Homo sapiens, UniProt Q96GD4); settings: 2 h, kinase AURORA B; read-out: % Enzyme Activity (relative to DMSO controls)
T20 construct: purchased Reaction Biology Corporation (assay service)

[21] = target: T21, panel of 370 protein kinases (Homo sapiens, UniProt Q9UPZ9); settings: 2 h, kinase LCK2/ICK; read-out: % Enzyme Activity (relative to DMSO controls)
T21 construct: purchased Reaction Biology Corporation (assay service)

T8 sequence (P29323 19-1055): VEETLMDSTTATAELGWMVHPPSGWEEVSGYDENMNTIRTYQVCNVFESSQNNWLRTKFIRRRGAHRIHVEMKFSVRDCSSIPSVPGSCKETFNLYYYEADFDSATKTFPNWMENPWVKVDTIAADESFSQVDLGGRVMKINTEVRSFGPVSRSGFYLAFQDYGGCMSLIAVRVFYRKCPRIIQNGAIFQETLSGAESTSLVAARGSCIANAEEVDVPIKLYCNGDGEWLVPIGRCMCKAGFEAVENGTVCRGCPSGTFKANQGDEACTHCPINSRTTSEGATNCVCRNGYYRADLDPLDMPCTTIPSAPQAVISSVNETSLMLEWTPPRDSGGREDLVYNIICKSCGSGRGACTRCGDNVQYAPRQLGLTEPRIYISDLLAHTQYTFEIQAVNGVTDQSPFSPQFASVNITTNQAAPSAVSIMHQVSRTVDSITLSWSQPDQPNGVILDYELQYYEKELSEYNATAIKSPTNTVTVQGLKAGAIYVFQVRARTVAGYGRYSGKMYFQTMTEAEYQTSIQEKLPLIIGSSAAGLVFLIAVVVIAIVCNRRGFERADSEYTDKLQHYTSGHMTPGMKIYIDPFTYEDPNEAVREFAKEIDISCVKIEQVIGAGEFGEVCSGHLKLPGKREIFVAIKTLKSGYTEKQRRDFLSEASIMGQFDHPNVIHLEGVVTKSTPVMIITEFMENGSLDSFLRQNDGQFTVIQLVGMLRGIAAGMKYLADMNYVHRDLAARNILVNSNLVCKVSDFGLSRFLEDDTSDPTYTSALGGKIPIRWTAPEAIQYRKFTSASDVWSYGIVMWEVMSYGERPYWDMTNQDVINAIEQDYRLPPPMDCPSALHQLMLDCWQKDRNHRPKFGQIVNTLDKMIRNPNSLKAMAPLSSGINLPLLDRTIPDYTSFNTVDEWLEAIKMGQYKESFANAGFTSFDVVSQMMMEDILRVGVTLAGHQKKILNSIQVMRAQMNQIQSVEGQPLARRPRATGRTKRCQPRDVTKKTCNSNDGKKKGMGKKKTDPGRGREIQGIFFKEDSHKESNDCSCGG
T4 sequence (O60674 whole entry): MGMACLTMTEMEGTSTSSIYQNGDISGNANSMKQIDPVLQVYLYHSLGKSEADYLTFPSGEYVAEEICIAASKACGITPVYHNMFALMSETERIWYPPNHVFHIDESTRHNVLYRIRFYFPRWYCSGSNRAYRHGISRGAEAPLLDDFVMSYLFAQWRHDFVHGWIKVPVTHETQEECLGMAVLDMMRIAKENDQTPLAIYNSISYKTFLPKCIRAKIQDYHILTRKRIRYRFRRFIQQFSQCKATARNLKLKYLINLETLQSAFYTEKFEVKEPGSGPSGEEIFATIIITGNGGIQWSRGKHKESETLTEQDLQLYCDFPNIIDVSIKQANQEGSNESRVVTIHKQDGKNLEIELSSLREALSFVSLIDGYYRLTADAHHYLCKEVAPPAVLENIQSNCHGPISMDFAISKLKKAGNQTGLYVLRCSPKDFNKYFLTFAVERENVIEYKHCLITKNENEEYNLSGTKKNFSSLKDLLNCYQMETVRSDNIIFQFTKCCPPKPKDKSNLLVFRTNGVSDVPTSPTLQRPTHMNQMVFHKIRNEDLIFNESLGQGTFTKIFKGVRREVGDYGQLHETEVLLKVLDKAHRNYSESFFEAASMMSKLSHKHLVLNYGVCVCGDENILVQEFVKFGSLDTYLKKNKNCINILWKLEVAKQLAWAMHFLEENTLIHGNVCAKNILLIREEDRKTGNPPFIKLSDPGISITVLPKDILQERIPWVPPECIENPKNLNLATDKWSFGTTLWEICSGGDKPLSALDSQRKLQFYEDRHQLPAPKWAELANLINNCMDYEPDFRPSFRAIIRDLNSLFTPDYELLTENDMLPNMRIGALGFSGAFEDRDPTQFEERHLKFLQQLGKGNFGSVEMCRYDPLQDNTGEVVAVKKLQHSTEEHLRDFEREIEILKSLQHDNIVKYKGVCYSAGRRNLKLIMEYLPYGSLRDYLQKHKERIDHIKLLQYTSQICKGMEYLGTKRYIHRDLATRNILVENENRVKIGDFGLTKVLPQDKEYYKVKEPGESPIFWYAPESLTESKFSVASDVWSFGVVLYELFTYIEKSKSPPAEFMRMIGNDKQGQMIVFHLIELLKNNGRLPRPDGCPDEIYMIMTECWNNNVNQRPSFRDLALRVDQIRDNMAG
T2 sequence (O14578 whole entry): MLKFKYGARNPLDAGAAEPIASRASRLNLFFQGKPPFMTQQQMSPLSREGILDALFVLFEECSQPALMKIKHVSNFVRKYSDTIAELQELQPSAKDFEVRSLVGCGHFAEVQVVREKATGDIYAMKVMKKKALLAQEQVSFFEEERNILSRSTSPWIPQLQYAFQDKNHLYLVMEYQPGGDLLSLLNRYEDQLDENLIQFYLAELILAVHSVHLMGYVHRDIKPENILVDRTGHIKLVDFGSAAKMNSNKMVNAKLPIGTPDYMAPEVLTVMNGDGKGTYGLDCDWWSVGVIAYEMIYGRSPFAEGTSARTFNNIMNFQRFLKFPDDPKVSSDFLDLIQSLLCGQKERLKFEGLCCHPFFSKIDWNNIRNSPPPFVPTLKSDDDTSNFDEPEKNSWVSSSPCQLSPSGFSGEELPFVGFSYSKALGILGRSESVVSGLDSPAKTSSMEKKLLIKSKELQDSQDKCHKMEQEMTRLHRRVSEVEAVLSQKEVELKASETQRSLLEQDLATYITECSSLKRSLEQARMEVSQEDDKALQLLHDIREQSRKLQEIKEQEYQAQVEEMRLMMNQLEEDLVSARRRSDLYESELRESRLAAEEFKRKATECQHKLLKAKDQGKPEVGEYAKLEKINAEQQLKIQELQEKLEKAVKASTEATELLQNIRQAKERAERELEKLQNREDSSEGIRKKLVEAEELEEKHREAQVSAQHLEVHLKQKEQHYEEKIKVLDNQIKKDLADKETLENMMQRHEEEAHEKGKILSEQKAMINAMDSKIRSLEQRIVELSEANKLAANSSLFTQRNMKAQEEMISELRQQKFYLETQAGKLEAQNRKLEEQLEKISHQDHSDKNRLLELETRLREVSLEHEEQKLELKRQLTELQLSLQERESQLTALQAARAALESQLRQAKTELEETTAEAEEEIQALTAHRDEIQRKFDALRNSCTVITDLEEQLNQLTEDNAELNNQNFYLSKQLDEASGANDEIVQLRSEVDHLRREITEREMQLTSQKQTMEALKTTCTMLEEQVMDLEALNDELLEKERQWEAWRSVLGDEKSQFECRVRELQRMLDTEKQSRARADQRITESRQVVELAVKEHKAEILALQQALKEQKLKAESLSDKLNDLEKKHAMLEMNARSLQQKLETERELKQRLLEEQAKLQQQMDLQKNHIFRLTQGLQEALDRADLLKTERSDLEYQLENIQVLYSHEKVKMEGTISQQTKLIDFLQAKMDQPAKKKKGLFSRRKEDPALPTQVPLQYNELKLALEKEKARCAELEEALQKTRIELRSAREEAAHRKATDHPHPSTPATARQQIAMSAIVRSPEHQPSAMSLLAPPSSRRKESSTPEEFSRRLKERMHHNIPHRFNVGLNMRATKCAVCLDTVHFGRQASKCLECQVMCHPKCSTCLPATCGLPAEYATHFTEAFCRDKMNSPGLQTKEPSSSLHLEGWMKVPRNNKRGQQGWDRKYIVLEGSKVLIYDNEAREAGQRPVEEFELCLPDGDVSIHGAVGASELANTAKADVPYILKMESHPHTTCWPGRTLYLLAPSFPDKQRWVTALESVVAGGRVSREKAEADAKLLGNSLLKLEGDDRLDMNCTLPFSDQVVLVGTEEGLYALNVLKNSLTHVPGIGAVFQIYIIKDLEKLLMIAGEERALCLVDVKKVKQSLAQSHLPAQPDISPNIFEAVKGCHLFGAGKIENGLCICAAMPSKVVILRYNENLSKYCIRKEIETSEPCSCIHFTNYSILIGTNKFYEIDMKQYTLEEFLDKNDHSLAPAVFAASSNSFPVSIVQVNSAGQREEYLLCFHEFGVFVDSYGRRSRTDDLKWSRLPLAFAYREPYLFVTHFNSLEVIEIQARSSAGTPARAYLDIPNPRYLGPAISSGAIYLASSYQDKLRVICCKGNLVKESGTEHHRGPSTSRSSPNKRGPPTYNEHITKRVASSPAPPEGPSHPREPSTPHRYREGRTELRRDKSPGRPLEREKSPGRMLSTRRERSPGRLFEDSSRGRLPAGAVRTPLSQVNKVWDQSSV
T17 sequence (Q15831 whole entry): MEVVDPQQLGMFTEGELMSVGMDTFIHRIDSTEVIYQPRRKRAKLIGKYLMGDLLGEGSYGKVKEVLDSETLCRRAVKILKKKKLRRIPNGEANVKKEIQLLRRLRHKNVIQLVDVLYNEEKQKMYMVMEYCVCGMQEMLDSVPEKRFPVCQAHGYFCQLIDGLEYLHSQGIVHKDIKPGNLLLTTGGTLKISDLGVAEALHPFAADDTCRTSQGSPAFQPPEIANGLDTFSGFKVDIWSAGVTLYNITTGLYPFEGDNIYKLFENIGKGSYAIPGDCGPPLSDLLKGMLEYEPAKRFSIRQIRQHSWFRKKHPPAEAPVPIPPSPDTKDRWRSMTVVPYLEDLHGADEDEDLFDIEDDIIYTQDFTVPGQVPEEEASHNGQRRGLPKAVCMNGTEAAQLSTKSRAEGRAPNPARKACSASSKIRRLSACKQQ
T20 sequence (Q96GD4 whole entry): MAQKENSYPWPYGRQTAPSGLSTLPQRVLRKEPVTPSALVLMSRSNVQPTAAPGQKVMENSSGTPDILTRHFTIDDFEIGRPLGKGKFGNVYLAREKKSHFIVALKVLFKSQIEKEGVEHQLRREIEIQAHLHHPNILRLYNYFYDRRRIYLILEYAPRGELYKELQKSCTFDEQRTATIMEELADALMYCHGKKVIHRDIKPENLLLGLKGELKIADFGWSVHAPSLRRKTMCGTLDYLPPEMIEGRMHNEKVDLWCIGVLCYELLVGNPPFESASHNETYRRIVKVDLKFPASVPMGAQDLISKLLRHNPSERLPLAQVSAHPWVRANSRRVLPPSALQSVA

Compound: CCN1CCN(C(=O)c2ccc(Nc3ncc(F)c(-c4ccc5nc(N(C)C)sc5c4)n3)nc2)CC1 [YK-2-69]
- remaining activity at 1 µM [1]: 72.6%
- % Enzyme Activity (relative to DMSO controls) [2]: 95.11% and 94.67%
- remaining activity at 1 µM [3]: 48.3%
- % Enzyme Activity (relative to DMSO controls) [4]: 101.21% and 93.21%
- remaining activity at 1 µM [5]: 86.8%
- remaining activity at 1 µM [6]: 76.5%
- remaining activity at 1 µM [7]: 104%
- % Enzyme Activity (relative to DMSO controls) [8]: 102.42% and 102.08%
- remaining activity at 1 µM [9]: 104%
- remaining activity at 1 µM [10]: 99.1%
- remaining activity at 1 µM [11]: 70.2%
- remaining activity at 1 µM [12]: 103%
- remaining activity at 1 µM [13]: 92.8%
- remaining activity at 1 µM [14]: 61.3%
- remaining activity at 1 µM [15]: 110%
- remaining activity at 1 µM [16]: 102%
- remaining activity at 1 µM [17]: 111%
- remaining activity at 1 µM [18]: 104%
- remaining activity at 1 µM [19]: 105%
- remaining activity at 1 µM [20]: 94.5%
- remaining activity at 1 µM [21]: 99.2%
